Source: US10391166B2, “Short oligonucleotides as vaccine adjuvants and therapeutic agents” (priority 2013, dated 2019)
“Also recorded” adds a separate entry of the source.

Columns and labels:
[1] = test system: C57Bl/6 mouse bone marrow derived macrophages; assay type: cell-based
[2] = target: T1, NOD2 (Homo sapiens, UniProt Q9HC29); assay: IRF3-luciferase assay in HEK 293 cells transfected with NOD2; assay type: cell-based; conditions: HEK 293 transfected with NOD2, pcDNA and IRF3-luciferase; 1 μM; 12 h
T1 construct: expressed in transfected cells; host or cells: HEK 293
Experimental: HEK 293 cells were transfected with NOD2, pcDNA and IRF3-luciferase. The cells were then incubated with ssRNA (0.5 mg/ml) or SMNH compounds (1 μM). Following 12 h incubation, Luciferase activity was measured as described previously. The luciferase assay results are presented as mean±S.D. from three independent experiments (detailed materials and methods employed in these assays, see: ref (28). The results are depicted in FIG. 2.

[3] = test system: IRF3-luciferase reporter gene; assay: IRF3-luciferase reporter induction in HLE A549 cells (primary assay for NOD2 activation); assay type: cell-based, human; conditions: 12 h incubation
Experimental: The evaluation of SMNH compounds for NOD2 activation was conducted by primary, secondary, and tertiary assays. In the primary assays, SMNH compounds were tested for the induction of IRF3 expression in HLE A549 cells, which are known to endogenously express NOD2. […] SB 44, a mixture of two isomers Rp and Sp, is a prodrug of SB 40. SB 1B—the Rp isomer of SB 44 and is shown as SB 44-1 in the FIGS. 1-2.
IRF3-luciferase transfected cells were incubated with either DMSO only (UT) or SMNH compounds (μM). Following 12 h incubation, luciferase activity was measured using Dual-Luciferase Reporter Assay System (Promega) according to the manufacturer's protocol. Transfection efficiency was normalized by measuring the expression of renilla Luciferase. Luciferase units (i.e., fold induction) were measured by standard methodology (mean±standard deviation; 3 independent experiments). The results are depicted in FIG. 1.

[4] = test system: RIG-I and NOD2; assay: Induction of responder genes RIG-I and NOD2; assay type: cell-based
[5] = test system: interferon-β (IFN-β); assay: IFN-β production from human lung epithelial A549 cells; assay type: cell-based
[6] = test system: MHC-II; assay type: cell-based, mouse
[7] = test system: M. tuberculosis; set-up: species or system C57Bl/6 mice; conditions: mouse, in vivo
[8] = test system: IL-1β; assay: Mature IL-1β ELISA in mouse bone marrow derived primary macrophages; assay type: cell-based; conditions: alone or with MDP or BCG, caspase blockade with ZVAD-fmk
Experimental: C57Bl/6 mouse bone marrow derived primary macrophages were treated with SB 1A or SB 1B alone, MDP alone or in combination as indicated for 4 hrs. BCG was used for infection for 4 hrs and supernatants collected 18 hr later titrated for mature IL1β using ELISA. Macrophages were first treated with ZVAD-fmk (2 hrs) for caspase blockade followed by activation with SB 1A and SB 1B (4 hrs) and BCG infection (4 hrs). Cytokine was measured 18 hrs later.

[9] = test system: M. tuberculosis; set-up: species or system C57Bl/6 mice; conditions: mouse, in vivo; remark: listed apart in the source
[10] = in vitro; conditions: bovine (MDBK), African green monkey (Vero), human (HFF)
Experimental: (§1) SB 44 was subjected to cytotoxicity evaluation against a panel of cell lines including Madin-Darby bovine kidney (MDBK), Vero, and HFF (human foreskin fibroblasts) to determine their CC50. Standard Microculture Tetrazolium Assay (MTT) assays were performed in 96-well plates using MDBK, Vero, and HFF cell lines (obtained from American Type Cell Collection). Controls included the nucleoside analogs 3TC, AZT, and ddC, as well as media without drugs. SDS was used as a positive cytotoxic control. All prodrugs were tested in triplicate at concentrations of 100, 300, and 1000 μM. Following a 24-hour incubation of cells with the test substance, the MTT assay was carried out.
(§2) Standard MTT assays were performed in 96-well plates using the Promega CellTiter96 Non-radioactive Cell Proliferation Assay Kit in conjunction with a 96-well Plate Reader (ThermoMax, Molecular devices), and MDBK, Vero, and HFF cell lines (obtained from ATCC). Several controls were employed including the nucleoside analogs 3TC, AZT, and ddC, as well as, media without drugs. SDS was used as a positive cytotoxic control. The compounds were tested in triplicate at concentrations of 100, 300, and 1000 μM. Following a 24-hour incubation of cells with the test substance, the MTT assay was carried out.

[11] = human liver S9 fractions
Experimental: SB 44 (10 μM) was incubated with a mix containing S9 fraction (pooled from human) (1 mg/ml), NADPH (1.3 mM) UDPGA (5 mM), Alamethicin (10 μg/ml) in 1 ml of 1×PBS buffer. S-(5′-adenosyl)-L-methionine iodide (0.1 mM), adenosine 3′-phosphate 5′-phosphosulfate lithium salt hydrate (0.1 mM) and acetyl CoA (1 mM). The metabolite samples were evaluated by HPLC and LC/MS analysis.

[12] = test system: MDBK, Vero, and HFF cell lines; assay: in vitro; conditions: cell line not specified (table footnote)
Experimental: as §1, §2

[13] = Experimental: The objectives of this study were to determine potential toxic effects of SB 44 following daily oral dose administration for 14 days, and to evaluate the genotoxicity of SB 44 as determined by micronucleus evaluation. Male and female Sprague-Dawley rats were administered SB 44 daily at doses of 50, 200 and 500 mg/kg/day for 14 consecutive days. […] Micronucleus evaluations were performed to determine the potential genotoxicity of SB 44. Necropsies were performed on Day 15 for rats in the main study group and on Day 28 for rats in the recovery group.
[14] = test system: peripheral blood mononuclear cells (PBMCs); assay: Multiplex assay for 28 cytokines in PBMCs; assay type: cell-based, human; conditions: up to 50 μM
[15] = test system: PBMCs; assay type: cell-based
[16] = test system: RIG-I and NOD2; assay type: cell-based; conditions: receptor-deficient cells, exogenous RIG-I and NOD2

T1 sequence (Q9HC29 whole entry, species assumed): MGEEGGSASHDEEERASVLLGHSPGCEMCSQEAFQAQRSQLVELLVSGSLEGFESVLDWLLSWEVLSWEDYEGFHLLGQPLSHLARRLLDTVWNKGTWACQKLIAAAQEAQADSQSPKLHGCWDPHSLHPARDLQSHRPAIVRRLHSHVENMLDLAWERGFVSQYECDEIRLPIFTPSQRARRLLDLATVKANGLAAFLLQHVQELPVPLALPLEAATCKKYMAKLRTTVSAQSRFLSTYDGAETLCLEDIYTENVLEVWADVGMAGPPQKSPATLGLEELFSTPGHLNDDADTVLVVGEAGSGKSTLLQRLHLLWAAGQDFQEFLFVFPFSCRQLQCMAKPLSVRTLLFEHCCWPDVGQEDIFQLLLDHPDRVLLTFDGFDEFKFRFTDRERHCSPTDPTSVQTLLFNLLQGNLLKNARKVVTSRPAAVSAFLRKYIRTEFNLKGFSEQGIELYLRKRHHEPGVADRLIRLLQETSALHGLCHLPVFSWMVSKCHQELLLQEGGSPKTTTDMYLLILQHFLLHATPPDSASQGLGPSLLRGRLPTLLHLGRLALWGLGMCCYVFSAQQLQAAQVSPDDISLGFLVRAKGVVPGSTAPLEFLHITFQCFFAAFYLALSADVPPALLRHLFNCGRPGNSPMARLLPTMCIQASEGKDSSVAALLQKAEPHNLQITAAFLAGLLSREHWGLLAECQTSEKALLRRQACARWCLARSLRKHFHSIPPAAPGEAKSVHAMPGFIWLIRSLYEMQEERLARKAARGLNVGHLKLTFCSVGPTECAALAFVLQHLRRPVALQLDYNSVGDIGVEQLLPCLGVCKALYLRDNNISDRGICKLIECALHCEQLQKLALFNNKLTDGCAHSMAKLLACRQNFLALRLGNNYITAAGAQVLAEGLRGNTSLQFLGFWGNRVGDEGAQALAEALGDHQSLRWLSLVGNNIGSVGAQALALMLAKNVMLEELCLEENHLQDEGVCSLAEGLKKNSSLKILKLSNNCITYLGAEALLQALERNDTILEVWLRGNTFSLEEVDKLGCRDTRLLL

SMILES: COC1C(OP(=O)(OCC2OC(n3cnc4c(N)ncnc43)CC2O)SCOC(=O)OC(C)C)C(CO)OC1n1ccc(=O)[nH]c1=O (stereo not drawn) [SB 1B]
- antigen presentation (Antigen-85B) in macrophages [1]: enhance antigen presentation in vitro; also recorded: retain full activity
- IRF3 activation mediated via NOD2 [2]: mediated via NOD2 activation
- IRF3 activation (IRF3-luciferase) [3]: induced IRF3 activation
- induction of responder genes RIG-I and NOD2 [4]: induction of responder genes RIG-I and NOD2
- production of IFN-β [5]: results in production of IFN-β
- surface expression of MHC-II [6]: increase MHC-II in MΦs
- Mtb counts of lungs [7]: reducing Mtb counts of lungs better than either BCG or MDP+BCG
- Mtb counts of spleens [7]: better than BCG vaccine in reducing Mtb counts of spleens
- adjuvant efficacy with BCG vaccine against tuberculosis [7]: more efficacious as an adjuvant than SB 44; also recorded: better than muramyl dipeptide (MDP) as adjuvants
- anti-TB T cell function of mice [7]: dramatic increase in anti-TB T cell function of mice
- numbers of multi-functional T cells [7]: enhances the numbers of multi-functional T cells compared to BCG vaccine
- tetramer specific CD8 T cells [7]: comparable levels of tetramer specific CD8 T cells
- induction of mature IL-1β [8]: induce IL-1β only in combination with either MDP or intact BCG bacilli
- antigen specific CD8 / memory T cells in lungs of re-challenged mice [9]: boost the magnitude of antigen specific memory T cells; also recorded: induces a robust expansion of antigen specific CD8 T cells
- protection against re-challenge of tuberculosis [9]: protects twice as better than BCG; also recorded: induce protection against re-challenge of tuberculosis in mice
- recall response against re-challenge with tuberculosis [9]: retain the ability to mount a better recall response

SMILES: COC1[C@@H](OP(=O)(OC[C@H]2O[C@@H](n3cnc4c(N)ncnc43)C[C@H]2O)SCOC(=O)OC(C)C)[C@@H](CO)O[C@H]1n1ccc(=O)[nH]c1=O (stereo partly drawn) [Compound 3]
- CC50 at 24 h [10]: > 1000 µM

SMILES: COC1C(OP(=O)(S)OCC2OC(n3cnc4c(N)ncnc43)CC2O)C(CO)OC1n1ccc(=O)[nH]c1=O (mixture of isomers) [SB 40]
- phase II conjugative reactions [11]: no apparent evidence of any phase II conjugative reactions
- antigen presentation (Antigen-85B) in macrophages [1]: enhance antigen presentation in vitro
- CC50 [12]: > 1000 µM
- IRF3 activation mediated via NOD2 [2]: mediated via NOD2 activation
- IRF3 activation (IRF3-luciferase) [3]: induced IRF3 activation
- systemic exposure females versus males, largest difference ([13]; Day 14, 500 mg/kg dose groups): about twofold
- Day 14 Cmax and AUClast values versus Day 1 ([13]; SB 40 in plasma, each dose of SB 44): higher than those on Day 1
- dose relationship for Cmax and AUClast ([13]; SB 40 in plasma, male and female rats, Days 1 and 14): nonlinear dose relationship
- cytokine induction in human PBMC cultures [14]: did not cause cytokine induction
- surface expression of MHC-II [6]: increase MHC-II in MΦs
- anti-TB T cell function of mice [7]: dramatic increase in anti-TB T cell function of mice
- IFN production in the presence of BCG [15]: modest augmentation of IFN production
- enhancement of ISG-56 expression over that induced by PolyI-PolyC [16]: 2 fold
